Tests used:
Format in all cases: ADME
[1] = Activity of human recombinant N-terminal His-tagged DCK Pro122Ser mutant expressed in Escherichia coli BL21(DE3) cells assessed as cytosine-beta-D-arabinofuranoside-5'-MP formation incubated for 3 mins by liquid chromatography-tandem mass spectrometry; details: 0.05 h
[2] = Activity of human recombinant N-terminal His-tagged DCK Ala119Gly mutant expressed in Escherichia coli BL21(DE3) cells assessed as cytosine-beta-D-arabinofuranoside-5'-MP formation incubated for 3 mins by liquid chromatography-tandem mass spectrometry; details: 0.05 h
[3] = Activity of human recombinant N-terminal His-tagged DCK Ile24Val mutant expressed in Escherichia coli BL21(DE3) cells assessed as cytosine-beta-D-arabinofuranoside-5'-MP formation incubated for 3 mins by liquid chromatography-tandem mass spectrometry; details: 0.05 h
[4] = Drug metabolism assessed as […] incubated for 1 min in presence of human recombinant N-terminal His-tagged DCK Ile24Val mutant expressed in Escherichia coli BL21(DE3) cells by liquid chromatography-tandem mass spectrometry
[5] = Ratio of intrinsic clearance for human recombinant N-terminal His-tagged DCK Ile24Val mutant expressed in Escherichia coli BL21(DE3) cells to intrisic clerance for human recombinant N-terminal His-tagged wild type DCK expressed in Escherichia coli BL21(DE3) cells
[6] = Drug metabolism assessed as […] incubated for 1 min in presence of human recombinant N-terminal His-tagged DCK Ala119Gly mutant expressed in Escherichia coli BL21(DE3) cells by liquid chromatography-tandem mass spectrometry
[7] = Drug metabolism assessed as […] incubated for 1 min in presence of human recombinant N-terminal His-tagged DCK Pro122Ser mutant expressed in Escherichia coli BL21(DE3) cells by liquid chromatography-tandem mass spectrometry

Km [1] [µM]	Vmax [1] [nmol/min/mg]	Km [2] [µM]	Vmax [2] [nmol/min/mg]	Km [3] [µM]	Vmax [3] [nmol/min/mg]	Km [4] [µM]	Vmax [4] [nmol/min/mg]	Ratio [5]	Km [6] [µM]	Vmax [6] [nmol/min/mg]	Km [7] [µM]	Vmax [7] [nmol/min/mg]	SMILES
1.56	264	2.54	580.3	2.45	599.4	–	–	–	–	–	–	–	Nc1ccn([C@@H]2O[C@H](CO)[C@@H](O)[C@@H]2O)c(=O)n1 [CYTARABINE]
–	–	–	–	–	–	1.52	1234	2	1.75	828.1	1.43	573.2	Nc1ccn([C@@H]2O[C@H](CO)[C@@H](O)C2(F)F)c(=O)n1 [GEMCITABINE]
